In patent publication US20220202911A1 (Amryt Endo, Inc., priority 2020, published 2022):

Assays:
[1] = clinical; conditions: human, plasma; for AUC(0-t): AUC(0-12)
Description: (§1) This was a single-center, randomized, single-blind, placebo-controlled study in 18 healthy subjects. Two groups of subjects were studied in a 4-treatment, 2-sequence, and crossover design. The study was comprised of a screening period, a treatment period, and a follow-up period (approximately 10-13 days following the last test condition). Subjects were randomized in a 1:1 ratio to one of 2 sequences (i.e., Group 1 or 2) of 4 test conditions (i.e., A-D) as shown in Table 1.

[2] = digoxin 0.5 mg alone (placebo)
Description: as §1

[3] = clinical; conditions: human, in vivo; for AUC(0-t): AUC(0-12)
[4] = oral, least squares geometric mean, digoxin alone (second geometric-mean column; no unit printed in Table 7)
[5] = least squares geometric mean, Reference
[6] = least squares geometric mean, Test

Row | AUC0-12 increase [3] [%] | Cmax increase [3] [%] | Tmax [3] [h] | change in the rate of absorption (from Tmax) [3] | individual decreases in AUC0-12, 3 of 17 subjects [3] | individual increases in AUC0-12, remaining 14 subjects [3] | share of the 14 subjects with an increase in AUC0-12 that had an increase 25% (11 subjects) [3] [%] | Tmax ([3]; 20 mg) [h] | AUC(0-t) ([3]; 20 mg, mean ± SD) [ng·h/mL] | AUC(0-t) [3, 5] [ng·h/mL] | AUC(0-t) [3, 6] [ng·h/mL] | Cmax [3, 5] [ng/mL] | Cmax [3, 6] [ng/mL] | Compound | Tmax ([1]; oral) [h] | AUC(0-t) ([1]; oral, 0.5 mg, mean ± SD, digoxin 0.5 mg alone (placebo)) [ng·h/mL] | AUC(0-t) [1, 4] [ng·h/mL] | Cmax [1, 4] [ng/mL] | Cmax ([1]; po, mean ± SD, digoxin 0.5 mg oral single dose alone (placebo; lisinopril 20 mg co-administered)) [ng/mL] | Tmax, median [2] [h]
1 | – | – | – | – | – | – | – | – | – | – | – | – | – | C[C@H]1O[C@@H](O[C@H]2[C@@H](O)C[C@H](O[C@H]3[C@@H](O)C[C@H](O[C@H]4CC[C@@]5(C)[C@H](CC[C@@H]6[C@@H]5C[C@@H](O)[C@]5(C)[C@@H](C7=CC(=O)OC7)CC[C@]65O)C4)O[C@@H]3C)O[C@@H]2C)C[C@H](O)[C@@H]1O [Digoxin, digoxin] | 3 | 9.14 ± 2.03 | 8.91 | 2.38 | 2.5 ± 0.71 | 1
2 | 40 | 50 | 7 | no apparent change | 6.17-16.1% | 2.98-140% | 79 | 7.5 | 690 ± 207 | 661 | 923 | 83.6 | 126 | NCCCC[C@H](N[C@@H](CCc1ccccc1)C(=O)O)C(=O)N1CCC[C@H]1C(=O)O [Lisinopril, lisinopril] | – | – | – | – | – | –
